Experimental data from the NIST ThermoML archive (doi:10.1016/j.fluid.2008.09.004).
Numbers after ± are expanded uncertainties.

Columns and labels:
[1] = molar heat capacity at constant pressure; xn = mol fraction of the nth substance listed; settings: 101 kPa, Liquid, Small sample (50 mg) DSC
[2] = xn = mol fraction of the nth substance listed; settings: 101 kPa, Liquid, Vibrating tube method
[3] = excess molar enthalpy (molar enthalpy of mixing); xn = mol fraction of the nth substance listed; settings: 303.15 K, 101 kPa, Liquid, Calvet calorimetry

CCCCn1cc[n+](C)c1.O=S(=O)([O-])C(F)(F)F [1-butyl-3-methylimidazolium trifluoromethanesulfonate] + CCO
Settings | mass density, [2] [kg/m3] | molar heat capacity at constant pressure, [1] [J/K/mol]
293.15 K, x1 = 0.0522 | 881 ± 0.4 | 128.2 ± 2
293.15 K, x1 = 0.0982 | 944.5 ± 0.3 | 143.3 ± 2.2
293.15 K, x1 = 0.1976 | 1041.9 ± 0.3 | 175.3 ± 2.7
293.15 K, x1 = 0.2999 | 1111.4 ± 0.2 | 207.9 ± 3.2
293.15 K, x1 = 0.3996 | 1160.3 ± 0.2 | 237.9 ± 3.7
293.15 K, x1 = 0.4973 | 1196.9 ± 0.2 | 267.2 ± 4.1
293.15 K, x1 = 0.5923 | 1225.3 ± 0.2 | 295.7 ± 4.6
293.15 K, x1 = 0.6898 | 1249.1 ± 0.2 | 326.5 ± 5.1
293.15 K, x1 = 0.7868 | 1268.5 ± 0.2 | 355.5 ± 5.5
293.15 K, x1 = 0.8756 | 1283.7 ± 0.2 | 382.4 ± 5.9
293.15 K, x1 = 0.9283 | 1291.6 ± 0.3 | 399 ± 6.2
298.15 K, x1 = 0.0522 | 876.7 ± 0.4 | 130 ± 2
298.15 K, x1 = 0.0982 | 940.2 ± 0.3 | 144.9 ± 2.2
298.15 K, x1 = 0.1976 | 1037.7 ± 0.3 | 176.8 ± 2.7
298.15 K, x1 = 0.2999 | 1107.2 ± 0.2 | 209.2 ± 3.2
298.15 K, x1 = 0.3996 | 1156.1 ± 0.2 | 239.4 ± 3.7
298.15 K, x1 = 0.4973 | 1192.8 ± 0.2 | 268.9 ± 4.2
298.15 K, x1 = 0.5923 | 1221.2 ± 0.2 | 297.3 ± 4.6
298.15 K, x1 = 0.6898 | 1245 ± 0.2 | 328.2 ± 5.1
298.15 K, x1 = 0.7868 | 1264.5 ± 0.2 | 357.6 ± 5.5
298.15 K, x1 = 0.8756 | 1279.7 ± 0.2 | 384.5 ± 6
298.15 K, x1 = 0.9283 | 1287.6 ± 0.3 | 401.2 ± 6.2
303.15 K, x1 = 0.0522 | 872.5 ± 0.4 | 131.8 ± 2
303.15 K, x1 = 0.0982 | 935.9 ± 0.3 | 146.4 ± 2.3
303.15 K, x1 = 0.1976 | 1033.4 ± 0.3 | 178.3 ± 2.8
303.15 K, x1 = 0.2999 | 1103 ± 0.2 | 210.6 ± 3.3
303.15 K, x1 = 0.3996 | 1152 ± 0.2 | 240.9 ± 3.7
303.15 K, x1 = 0.4973 | 1188.7 ± 0.2 | 270.7 ± 4.2
303.15 K, x1 = 0.5923 | 1217.2 ± 0.2 | 299 ± 4.6
303.15 K, x1 = 0.6898 | 1241 ± 0.2 | 330 ± 5.1
303.15 K, x1 = 0.7868 | 1260.5 ± 0.2 | 359.9 ± 5.6
303.15 K, x1 = 0.8756 | 1275.7 ± 0.2 | 386.8 ± 6
303.15 K, x1 = 0.9283 | 1283.7 ± 0.2 | 403.7 ± 6.3
308.15 K, x1 = 0.0522 | 868.2 ± 0.4 | 133.8 ± 2.1
308.15 K, x1 = 0.0982 | 931.7 ± 0.3 | 148.2 ± 2.3
308.15 K, x1 = 0.1976 | 1029.2 ± 0.3 | 180 ± 2.8
308.15 K, x1 = 0.2999 | 1098.8 ± 0.2 | 212.1 ± 3.3
308.15 K, x1 = 0.3996 | 1147.9 ± 0.2 | 242.6 ± 3.8
308.15 K, x1 = 0.4973 | 1184.7 ± 0.2 | 272.6 ± 4.2
308.15 K, x1 = 0.5923 | 1213.1 ± 0.2 | 301 ± 4.7
308.15 K, x1 = 0.6898 | 1237 ± 0.2 | 332 ± 5.1
308.15 K, x1 = 0.7868 | 1256.5 ± 0.2 | 362.3 ± 5.6
308.15 K, x1 = 0.8756 | 1271.7 ± 0.2 | 389.3 ± 6
308.15 K, x1 = 0.9283 | 1279.7 ± 0.2 | 406.3 ± 6.3
313.15 K, x1 = 0.0522 | 863.9 ± 0.4 | 135.8 ± 2.1
313.15 K, x1 = 0.0982 | 927.4 ± 0.3 | 150 ± 2.3
313.15 K, x1 = 0.1976 | 1025 ± 0.3 | 181.7 ± 2.8
313.15 K, x1 = 0.2999 | 1094.7 ± 0.2 | 213.7 ± 3.3
313.15 K, x1 = 0.3996 | 1143.8 ± 0.2 | 244.3 ± 3.8
313.15 K, x1 = 0.4973 | 1180.6 ± 0.2 | 274.6 ± 4.3
313.15 K, x1 = 0.5923 | 1209.1 ± 0.2 | 303 ± 4.7
313.15 K, x1 = 0.6898 | 1233 ± 0.2 | 334.1 ± 5.2
313.15 K, x1 = 0.7868 | 1252.5 ± 0.2 | 364.8 ± 5.7
313.15 K, x1 = 0.8756 | 1267.7 ± 0.2 | 391.9 ± 6.1
313.15 K, x1 = 0.9283 | 1275.8 ± 0.2 | 409 ± 6.3
318.15 K, x1 = 0.0522 | 859.5 ± 0.4 | 138 ± 2.1
318.15 K, x1 = 0.0982 | 923 ± 0.3 | 152 ± 2.4
318.15 K, x1 = 0.1976 | 1020.7 ± 0.3 | 183.6 ± 2.8
318.15 K, x1 = 0.2999 | 1090.5 ± 0.3 | 215.4 ± 3.3
318.15 K, x1 = 0.3996 | 1139.6 ± 0.2 | 246.2 ± 3.8
318.15 K, x1 = 0.4973 | 1176.5 ± 0.2 | 276.8 ± 4.3
318.15 K, x1 = 0.5923 | 1205 ± 0.2 | 305.1 ± 4.7
318.15 K, x1 = 0.6898 | 1229 ± 0.2 | 336.4 ± 5.2
318.15 K, x1 = 0.7868 | 1248.5 ± 0.2 | 367.5 ± 5.7
318.15 K, x1 = 0.8756 | 1263.8 ± 0.2 | 394.6 ± 6.1
318.15 K, x1 = 0.9283 | 1271.8 ± 0.2 | 411.9 ± 6.4

[3]
Settings | excess molar enthalpy [kcal/mol]
x1 = 0.0987 | 0.23 ± 0.0184
x1 = 0.2029 | 0.363 ± 0.0287
x1 = 0.2948 | 0.416 ± 0.0335
x1 = 0.4016 | 0.424 ± 0.0335
x1 = 0.4928 | 0.406 ± 0.0335
x1 = 0.5952 | 0.353 ± 0.0287
x1 = 0.6832 | 0.291 ± 0.0234
x1 = 0.8026 | 0.199 ± 0.016
x1 = 0.8759 | 0.129 ± 0.0103
